Experiments:
PDE isozyme I = test: Inhibition of PDE (isozyme I); type: biochemical; details: pig ventricular muscle, [3H]-cAMP substrate; read-out: PDE Inhibitory activity (IC5 :μM), PDE isozyme I
Experimental: (§1) Inhibition of PDE by 1,8-naphthyridin-2-one derivative
(§2) The centrifugation supernatant of the homogenate of pig ventricular muscle was separated into isozyme by ortho-(diethylaminoethyl)-cellulose chromatography and used as an enzyme source. Respective isozymes were confirmed by the reaction with respective activity regulators. [^3 H]-cAMP was used as a substrate and the reaction was carried out in the presence of 5'-nucleotidase. A sample was dissolved in dimethyl sulfoxide and added to the reaction mixture. [^3 H]-5'-AMP produced by PDE was decomposed into [^3 H]-adenosine by 5'-nucleotidase. An anion exchange resin was added to adsorb the unreacted [^3 H]-cAMP, whereby the reaction was stopped. The [^3 H]-adenosine radioactivity of the supernatant was determined, based on which the PDE inhibitory action was calculated.

PDE isozyme II = target: T1, PDE isozyme II (Sus scrofa, UniProt F1SUV3); test: Inhibition of PDE (isozyme II); type: biochemical; details: pig ventricular muscle, [3H]-cAMP substrate; read-out: PDE Inhibitory activity (IC5 :μM), PDE isozyme II
T1 construct: centrifugation supernatant of the homogenate of pig ventricular muscle; from tissue; host or cells: pig ventricular muscle, supernatant of homogenate, DEAE-cellulose fraction
T1 sequence (F1SUV3 1-945): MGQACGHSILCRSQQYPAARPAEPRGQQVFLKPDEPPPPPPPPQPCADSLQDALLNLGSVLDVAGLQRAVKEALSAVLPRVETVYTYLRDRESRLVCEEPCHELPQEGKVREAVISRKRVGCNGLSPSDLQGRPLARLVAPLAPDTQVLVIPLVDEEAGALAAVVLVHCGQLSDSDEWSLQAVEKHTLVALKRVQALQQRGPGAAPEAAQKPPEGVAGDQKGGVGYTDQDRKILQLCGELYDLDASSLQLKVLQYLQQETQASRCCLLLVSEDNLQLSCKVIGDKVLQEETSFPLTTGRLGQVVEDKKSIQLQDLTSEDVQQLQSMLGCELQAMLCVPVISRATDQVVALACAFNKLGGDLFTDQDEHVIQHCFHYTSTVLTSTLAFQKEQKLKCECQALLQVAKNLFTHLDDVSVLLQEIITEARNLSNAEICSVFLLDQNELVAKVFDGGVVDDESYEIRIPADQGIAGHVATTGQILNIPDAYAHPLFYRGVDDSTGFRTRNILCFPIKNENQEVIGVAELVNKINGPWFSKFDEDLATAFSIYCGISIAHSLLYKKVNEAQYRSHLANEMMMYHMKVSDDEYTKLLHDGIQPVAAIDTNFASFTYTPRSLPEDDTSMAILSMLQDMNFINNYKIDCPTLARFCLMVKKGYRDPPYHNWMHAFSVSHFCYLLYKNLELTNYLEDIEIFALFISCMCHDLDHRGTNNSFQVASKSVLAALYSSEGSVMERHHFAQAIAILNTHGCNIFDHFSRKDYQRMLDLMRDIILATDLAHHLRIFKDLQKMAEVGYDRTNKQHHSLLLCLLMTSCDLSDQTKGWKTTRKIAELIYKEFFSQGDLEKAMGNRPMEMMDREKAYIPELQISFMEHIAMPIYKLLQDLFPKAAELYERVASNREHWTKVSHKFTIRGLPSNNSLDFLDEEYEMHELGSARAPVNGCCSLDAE
Experimental: as §1, §2

PDE isozyme III = target: T2, PDE isozyme III (Sus scrofa, UniProt I3L6S5); test: Inhibition of PDE (isozyme III); type: biochemical; details: pig ventricular muscle, [3H]-cAMP substrate; read-out: PDE Inhibitory activity (IC5 :μM), PDE isozyme III
T2 construct: centrifugation supernatant of the homogenate of pig ventricular muscle; from tissue; host or cells: pig ventricular muscle, supernatant of homogenate, DEAE-cellulose fraction
T2 sequence (I3L6S5 1-1145): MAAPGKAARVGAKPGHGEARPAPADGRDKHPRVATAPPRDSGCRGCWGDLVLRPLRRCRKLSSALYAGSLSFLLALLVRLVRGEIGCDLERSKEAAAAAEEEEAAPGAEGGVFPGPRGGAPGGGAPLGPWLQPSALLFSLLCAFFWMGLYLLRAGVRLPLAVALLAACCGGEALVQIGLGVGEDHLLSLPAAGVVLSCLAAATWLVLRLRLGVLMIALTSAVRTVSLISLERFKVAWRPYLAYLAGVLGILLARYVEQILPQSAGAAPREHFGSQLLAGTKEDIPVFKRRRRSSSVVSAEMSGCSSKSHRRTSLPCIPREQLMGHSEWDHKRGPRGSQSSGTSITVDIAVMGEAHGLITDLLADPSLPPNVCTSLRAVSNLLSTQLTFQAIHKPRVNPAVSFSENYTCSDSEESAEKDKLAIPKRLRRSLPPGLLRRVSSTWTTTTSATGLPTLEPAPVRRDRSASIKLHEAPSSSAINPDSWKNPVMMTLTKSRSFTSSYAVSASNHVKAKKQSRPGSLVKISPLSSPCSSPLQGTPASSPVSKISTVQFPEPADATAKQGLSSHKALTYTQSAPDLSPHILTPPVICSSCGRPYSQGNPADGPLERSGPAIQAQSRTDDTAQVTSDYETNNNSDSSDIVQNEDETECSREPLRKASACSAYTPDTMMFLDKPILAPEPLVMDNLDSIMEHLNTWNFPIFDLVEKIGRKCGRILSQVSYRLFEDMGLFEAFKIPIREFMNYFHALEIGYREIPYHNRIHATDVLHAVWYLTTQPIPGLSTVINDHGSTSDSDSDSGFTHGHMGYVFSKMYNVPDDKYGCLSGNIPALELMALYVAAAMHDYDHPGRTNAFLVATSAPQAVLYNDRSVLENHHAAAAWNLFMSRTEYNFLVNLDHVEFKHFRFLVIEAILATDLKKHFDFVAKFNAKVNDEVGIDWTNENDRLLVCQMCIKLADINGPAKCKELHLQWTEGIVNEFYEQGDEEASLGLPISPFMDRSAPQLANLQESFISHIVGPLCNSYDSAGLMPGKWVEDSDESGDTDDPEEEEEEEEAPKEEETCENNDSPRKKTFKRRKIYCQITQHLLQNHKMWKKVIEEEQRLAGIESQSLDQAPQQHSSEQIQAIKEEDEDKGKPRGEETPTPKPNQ
Experimental: as §1, §2

PDE isozyme IV = test: Inhibition of PDE (isozyme IV); type: biochemical; details: pig ventricular muscle, [3H]-cAMP substrate; read-out: PDE Inhibitory activity (IC5 :μM), PDE isozyme IV
Experimental: as §1, §2

[1] = system: histamine-induced contraction of bronchial specimen; test: Suppression of histamine-induced contraction of bronchial specimen extracted from guinea pig; parameters: species or system guinea pig (male Hartley); details: histamine 3 μM
Experimental: (§3) Suppression of histamine or leukotriene D4 -induced contraction of bronchial specimen extracted from guinea pig
(§4) Male Hartley guinea pigs weighing 250-450 g were fainted by hitting in the head and exsanguinated to death. The trachea was removed and ring specimens were prepared by a conventional method. The specimens were kept at 37° C. and suspended in a Krebs-Ringer solution (10 ml) aerated with a 95% O2 -5% CO2 mixed gas, and isometric tension was measured. The specimens were contracted with histamine (3 μM) or leukotriene D4 (1 nM). When the reaction became stable, a drug dissolved in dimethyl sulfoxide was added to the Kreb's Ringer solution. The relaxation ratio was calculated based on the base line before the contraction, which was taken as 100% relaxation.

[2] = system: leukotriene D4-induced contraction of bronchial specimen; test: Suppression of leukotriene D4-induced contraction of bronchial specimen extracted from guinea pig; parameters: species or system guinea pig (male Hartley); details: leukotriene D4 1 nM
Experimental: as §3, §4

mice = test: Acute toxicity in mice; type: in vivo, mice (ICR); details: 300 mg/kg p.o., 72 hours
Experimental: (§5) Acute toxicity of 1,8-naphthyridin-2-one derivative in mice
(§6) ICR mice (6-8 weeks of age, 7 per group) were fasted overnight and used for the experiment. A solvent (0.5% aqueous solution of carboxymethylcellulose) or a medium, in which a drug had been dissolved or suspended, was orally administered to mice in a dose of 0.1 ml/10 g body weight, and life or death of the animals was monitored for 72 hours after the administration. The representative test results of Compound 2 (300 mg/kg p.o.) are shown.

Acute toxicity in mice = type: in vivo, mice (ICR); details: mouse, in vivo, po, mice; estimated; read-out: oral lethal dose 50% (LD50)
Experimental: as §5, §6

[3] = system: endothelin-induced contraction of extracted pig coronary artery; test: Suppression of endothelin-induced contraction in extracted pig coronary artery; details: 10 μM
Experimental: Suppression of endothelin-induced contraction in extracted pig coronary artery
Rectangular specimens of pig left anterior descendens coronary artery (endothelial cells removed) were used. The specimens were heated to 37° C. and suspended in a Tyrode's solution (10 ml) aerated with a 95% O2 -5% CO2 mixed gas under the resting tension of 1.5 g, and changes in isometric tension were determined. The specimens were contracted with 10 nM endothelin and when the reaction became stable, a drug dissolved in dimethyl sulfoxide was added to the. Tyrode's solution. The relaxation ratio was calculated relative to the base line before the contraction, which was taken as 100% relaxation. The representative test results of Compound 2 (administration concentration: 10 μM) are shown.

endothelin [4] = test: Prevention of lethal effect on mice induced by intravenous administration of endothelin; type: in vivo, mice (male ICR)
Experimental: Prevention of lethal effect on mice induced by intravenous administration of endothelin
Male ICR mice (6-7 weeks of age) were used without anesthetization. A solvent (physiological saline or 0.5% carboxymethylcellulose in physiological saline) or a medium, in which a drug had been dissolved or suspended, was administered in a dose of 50 μl /10 g body weight via the tail vein of the mice. Five minutes later, 5 nmol/kg of endothelin (Peptide Institute) dissolved in the same amount of a solvent was intravenously administered. The mice were monitored for 60 minutes after the endothelin administration and the number of dead animals and the latency (seconds) until death were determined. […] The test results of Compound 2 are representatively shown.

endothelin [5] = test: Effect against endothelin-induced pressor activity in rats; type: in vivo, rats (male SD); details: 10 mg/kg i.v., 10 min after endothelin 1 nmol/kg; blood pressure 20 min after endothelin
Experimental: Effect against endothelin-induced pressor activity in rats
Male SD rats (6 to 8 weeks of age) were anesthetized with sodium pentobarbital (60 mg/kg, i.p.), and a polyethylene catheter was inserted in the left carotid artery, which was connected to a pressure transducer (TP-400T, manufactured by Nihon Koden), and the blood pressure was measured via a polygraph (RM-6000 manufactured by Nihon Koden).
The pressor activity was induced by administering endothelin (1 nmol/kg) dissolved in a solvent, from the femoral vein. With regard to the animals ascertained to have increased blood pressure, a solvent or a medium, in which a drug had been dissolved or suspended, was administered in a dose of 1 ml/kg from the femoral vein of the rats 10 minutes after the endothelin administration, and the pressor activity was observed thereafter. The representative test results of Compound 2 are shown.
The results are shown in Table 14. in the Table, changes in blood pressure 20 minutes after the endothelin administration was compared with the value obtained before the endothelin administration.

Cc1ccccc1-c1cc2cccnc2n(Cc2ccccc2F)c1=O [Compound 1, 1-(2-fluorobenzyl)-3-(2-methylphenyl)-1,8-naphthyridin-2(1H)-one]
IC50 (PDE isozyme I): > 50 µM | IC50 (PDE isozyme II): > 50 µM | IC50 (PDE isozyme III): > 50 µM | IC50 (PDE isozyme IV): 0.4 µM | Suppression of contraction % (HS) ([1]; 10 μM): 100% | Suppression of contraction % (LT) ([2]; 10 μM): 88%

Cn1c(=O)c(-c2ccccc2)cc2cccnc21 [Compound 2]
Death (number of animals) (mice; 7 animals administered): 0 | acute toxicity test result (mice): tested negative in the acute toxicity test | LD50 at 72 h (Acute toxicity in mice): ≥ 300 mg/kg | IC50 (PDE isozyme I): 29 µM | IC50 (PDE isozyme II): 39 µM | suppressive action on the endothelin-induced contraction [3]: showed evident suppressive action | Suppression % of endothelin-induced contraction ([3]; contracted with 10 nM endothelin, endothelial cells removed): 74% | IC50 (PDE isozyme III): > 50 µM | IC50 (PDE isozyme IV): 1.6 µM | Prevention of death: suppression of death (%) (endothelin [4]; 30 mg/kg i.v., 5 min before endothelin 5 nmol/kg i.v., 60 min monitoring): 52% | Prevention of death: prolongation of latency (%) (endothelin [4]; 30 mg/kg i.v., 5 min before endothelin 5 nmol/kg i.v., ** P<0.01 relative to control, Tukey): 305% | suppression of the death caused by endothelin and prolonging action of the latency until death (endothelin [4]; i.v.): showed suppression of the death caused by endothelin and a prolonging action of the latency until death | Suppression of contraction % (HS) ([1]; 10 μM): 93% | Endothelin-induced pressor activity, Suppression % (endothelin [5]): 38.5%

O=c1c(-c2ccccn2)cc2cccnc2n1CC1CC1 [Compound 3]
IC50 (PDE isozyme I): 66 µM | IC50 (PDE isozyme II): 18 µM | IC50 (PDE isozyme III): 80 µM | IC50 (PDE isozyme IV): 1.4 µM | Suppression of contraction % (HS) ([1]; 1 μM): 60% | Suppression of contraction % (LT) ([2]; 1 μM): 100%

C=CCn1c(=O)c(-c2ccc(OC)cc2)cc2cccnc21 [Compound 4]
IC50 (PDE isozyme I): 49 µM | IC50 (PDE isozyme II): > 50 µM | IC50 (PDE isozyme III): 44 µM | IC50 (PDE isozyme IV): 0.38 µM | Suppression of contraction % (HS) ([1]; 10 μM): 100% | Suppression of contraction % (LT) ([2]; 10 μM): 100%

CC(C)CCn1c(=O)c(-c2ccc(Cl)cc2)cc2cccnc21 [Compound 5]
IC50 (PDE isozyme I): > 50 µM | IC50 (PDE isozyme II): > 50 µM | IC50 (PDE isozyme III): > 50 µM | IC50 (PDE isozyme IV): 0.35 µM

Reference: patent US5658924A, “1,8-naphthyridin-2-one derivative and use thereof” (The Green Cross Corporation, priority 1995, dated 1997)
